Results on two compounds are retold here after patent publication US11185096B2, “Sweet taste improving compositions including naringenin and steviol glycosides” (DR PEPPER/SEVEN UP, INC., priority 2014, dated 2021).

What all share (assay type): in vivo
The nature of assay [1]: Taste evaluation of reduced-calorie beverage (Table C base formula) with added naringenin, compared to a full-calorie beverage (Example 2). The source says: The base formula of Table C may provide about a 50% reduction in calories as compared to a typical full-calorie beverage.
For example, delocalization of sweetness, an attribute that relates to the beverage mouthfeel, was increased. […] Moreover, the aftertaste of naringenin-including samples became more syrupy, resulting in an aftertaste that was more similar to the full-calorie product. Improvements in sweetness and aftertaste were found for each of the above samples that included naringenin.

A short description of assay [2]: Sensory panel evaluation of naringenin in water (Example 1). To be noted: for Sweetness: sensory panelists. On the procedure: Naringenin was evaluated in water as shown in Table B. Water used in all beverages described herein was specifically purified prior to use by processes well known in the art such as filtration, deionization, distillation, or reverse osmosis. Evaluation of the samples was performed using evaluation by sensory panelists. Beverage sampling comprised of taking an about 10 mL portion of the beverage into the mouth, holding the sample in the mouth, and rating the sweetness for each sample.

Assay [3] in a line: Taste evaluation of beverages with rebaudioside E, rebaudioside M or both, with and without naringenin (Example 3). Here is the method: In this example, samples were prepared to determine the taste attributes of reduced-calorie beverages including rebaudioside E, rebaudioside M, and combinations of rebaudiosides E and M, with and without naringenin. Beverages were prepared by adding rebaudiosides to the base solution shown in Table E. The tested concentrations of rebaudioside E, rebaudioside M, or a combination of both rebaudiosides, are shown in Table F. Beverages were then prepared by adding naringenin in various amounts, ranging from about 10 ppm to about 300 ppm, as shown in Table G. For example, naringenin was added to the base solution and each of the rebaudioside solutions shown in Table F. Further description of the beverages prepared in Example 3 is also shown in FIG. 2 of the drawings. Each of the prepared beverages was evaluated for changes or improvements for each of sweetness profile (upfront, middle, and back end sweetness), aftertaste (chemical, astringency), mouthfeel (cloying, thickness, thinness), and bitterness (relative to Rebaudioside A). For example, in a protocol to compare the bitterness of beverage samples to rebaudioside A, participants tasted each of an about 10 ml sample of the test beverage and an about 10 ml sample of a beverage including rebaudioside A (prepared in the same base solution shown in Table E). Relative bitterness was then immediately rated between the beverage samples.

[4] abbreviates: Table C base formula with naringenin 15 to 300 ppm.

For `O=C1C[C@@H](c2ccc(O)cc2)Oc2cc(O)cc(O)c21` [naringenin], the delocalization of sweetness result in assay [1] (setting [4]) is reported as “increased”. Besides, the upfront sweetness profile result in assay [1] (setting [4]) is “surprisingly increased”. For the same compound, in assay [1] (Table C base formula with naringenin 15 to 300 ppm, vs full-calorie beverage), the “syrup qualities of the beverages (mouthfeel)” value is “increase syrup qualities”. The aftertaste entry in assay [1] (Table C base formula with naringenin 15 to 300 ppm, vs full-calorie product) is “more syrupy”. Besides, the sweetness profile entry in assay [1] (Table C base formula, 15 ppm naringenin) is reported as “significantly improved”; in assay [1] (Table C base formula, about 30 ppm naringenin), “close to that of the full-calorie product”. Further, the “noticeable taste impressions or interference with flavors” value in assay [1] (Table C base formula, above 30 ppm up to about 300 ppm naringenin) was “did not provide any noticeable taste impressions”. Moreover, in assay [2] (in water, data of Table B (5 to 200 ppm)), the taste or flavor entry was “does not elicit any taste or flavor”. Also, the Sweetness result in assay [2] (naringenin 5 ppm in water), in assay [2] (naringenin 10 ppm in water), in assay [2] (naringenin 20 ppm in water), in assay [2] (naringenin 40 ppm in water), in assay [2] (naringenin 80 ppm in water) and in assay [2] (naringenin 100 ppm in water) was “No perceptible sweetness” throughout. Further, the Sweetness result in assay [2] (naringenin 200 ppm in water) is “No perceptible sweetness”. Besides, the overall perception entry is recorded as “perceived as better” in assay [3] (10, 50 or 70 ppm naringenin with combination of rebaudioside E and rebaudioside M, vs rebaudioside M alone or with naringenin); “perceived as negative” in assay [3] (300 ppm naringenin, Table E base with rebaudioside E 300 ppm); “perceived as negative” in assay [3] (300 ppm naringenin, Table E base with rebaudioside M 300 ppm); “perceived as negative” in assay [3] (300 ppm naringenin, Table E base with rebaudiosides E and M 150 ppm each). Further, the mouthfeel entry in assay [3] (10 to 70 ppm naringenin with rebaudioside E, compared to rebaudioside E base alone) is recorded as “increased”; in assay [3] (higher naringenin concentrations, particularly 300 ppm, Table E base with rebaudioside M 300 ppm, some participants) it was “cloying mouthfeel”. Further, in assay [3] (300 ppm naringenin, across all bases), the “suitability of naringenin level” value is recorded as “too high”. For the same compound, the sweetness profiles result in assay [3] (about 10 ppm to 70 ppm naringenin, Table E base with rebaudioside E 150 ppm and rebaudioside M 150 ppm) is recorded as “significantly improved”. The “cloying mouthfeel and aftertaste” value in assay [3] (about 10 ppm to about 70 ppm naringenin, Table E base with rebaudiosides E and M 150 ppm each) is “diminished”. Besides, the “sweetness in the middle of the profile” value in assay [3] (naringenin added to Table E base with rebaudioside E 300 ppm) was “increased”. Also, the “taste character / mouthfeel” value in assay [3] (naringenin added to Table E base with rebaudioside M 300 ppm) is “sticky sweet”.

For the compound `C=C1C[C@@]23CC[C@H]4[C@@](C)(CCC[C@@]4(C)C(=O)O[C@@H]4O[C@H](CO)[C@@H](O)[C@H](O)[C@H]4O[C@@H]4O[C@H](CO)[C@@H](O)[C@H](O)[C@H]4O)[C@@H]2CC[C@]1(O[C@@H]1O[C@H](CO)[C@@H](O)[C@H](O)[C@H]1O[C@@H]1O[C@H](CO)[C@@H](O)[C@H](O)[C@H]1O)C3` [rebaudioside E], in assay [3] (Table E base with rebaudioside E 300 ppm, without naringenin, in comparison to sugar or rebaudioside M solutions), the sweetness profile entry was “very flat sweetness profile and flat”. Also, in assay [3] (rebaudioside E alone without naringenin, compared to rebaudioside M), the mouthfeel and fullness entry is “less mouthfeel and fullness”.
